For five compounds, MIC90 results are on record in ChEMBL document CHEMBL3872213, “Synthesis and biological activity of furoxan derivatives against Mycobacterium tuberculosis” (Eur J Med Chem, 2016).

Test [1] deals with Mycobacterium tuberculosis. As to the kind of experiment: Antitubercular activity against multi-drug resistant Mycobacterium tuberculosis. It counts as functional.
Test [2] relates to Mycobacterium tuberculosis. Briefly: Antitubercular activity against clinical isolates of isoniazid/rifampicin/streptomycin/ethambutal resistant Mycobacterium tuberculosis after 7 days by REMA method. To be noted: 168 h. It counts as functional.

Converted amounts (≈) assume the structure as drawn.

A word on the MIC90: it is an inhibitory concentration at the 90% level, which refers to growth in some studies and to a panel of isolates in others. A low value points to greater potency. On to `O=C(N/N=C/c1ccc(O)cc1)c1ccncc1`, for which the MIC90 in test [1] was more than 62 µM.

In turn, `O=C(N/N=C/c1ccc(Oc2no[n+]([O-])c2-c2ccccc2)cc1)c1ccncc1` showed an MIC90 in test [2] of 24.3 µM (≈ 9.75 µg/mL). For `O=C(N/N=C/c1cccc(Oc2no[n+]([O-])c2S(=O)(=O)c2ccccc2)c1)c1ccncc1`, the MIC90 in test [2] was 21.3 µM (≈ 9.91 µg/mL). With `O=C(N/N=C/c1ccc(Oc2no[n+]([O-])c2S(=O)(=O)c2ccccc2)cc1)c1ccncc1`, in test [2], the MIC90 came to 7 µM (≈ 3.26 µg/mL). The same measure, in the same setting: for `O=C(N/N=C/c1ccccc1Oc1no[n+]([O-])c1S(=O)(=O)c1ccccc1)c1ccncc1` the value was 50 µM (≈ 23.3 µg/mL).
